Data taken from BindingDB's records for doi:10.1016/S1074-5521(99)80072-6 (Ligand Pharmaceuticals Inc, 1999).

Biological target: T1, Vitamin D-binding protein (Homo sapiens, UniProt V9HWI6)
T1 sequence (V9HWI6 whole entry): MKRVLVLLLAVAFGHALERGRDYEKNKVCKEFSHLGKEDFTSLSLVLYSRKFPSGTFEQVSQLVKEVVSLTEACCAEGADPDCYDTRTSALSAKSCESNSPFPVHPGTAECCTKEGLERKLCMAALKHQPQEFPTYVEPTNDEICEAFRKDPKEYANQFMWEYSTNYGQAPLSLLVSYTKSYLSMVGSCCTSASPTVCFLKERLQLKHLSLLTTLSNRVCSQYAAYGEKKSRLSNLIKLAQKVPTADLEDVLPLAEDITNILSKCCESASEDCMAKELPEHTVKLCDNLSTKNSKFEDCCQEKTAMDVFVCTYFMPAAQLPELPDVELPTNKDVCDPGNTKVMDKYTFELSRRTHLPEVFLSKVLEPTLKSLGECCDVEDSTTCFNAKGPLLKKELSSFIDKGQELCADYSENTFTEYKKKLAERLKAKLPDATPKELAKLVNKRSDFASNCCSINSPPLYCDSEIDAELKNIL
Experiment: DBP Binding Assay
Conditions: pH 7.4; 4 °C
Source text: (§1) DBP competition binding assay were done using human serum (Scantibodies) or rat serum (Gibco-BRL).

SMILES | IC50 [nM]
C=C1/C(=C\C=C\C2CCC3(C)C(CCC3C(C)CCCC(C)(C)O)C2)C[C@@H](C)C[C@@H]1C (some centres not stated) [1,25(OH)2D3] | 200
CC(C)(C)C(=O)COc1ccc(C(C)(C)c2ccc(OCC(=O)C(C)(C)C)c(Cl)c2)cc1Cl [LG190090] | > 1000
CCC(CC)(c1ccc(OCC(=O)C(C)(C)C)c(C)c1)c1ccc(OCC2CO2)c(C)c1 (configuration not stated) [LG190176] | > 1000
CCC(CC)(c1ccc(OCC(=O)C(C)(C)C)c(C)c1)c1ccc(OCC(O)CO)c(C)c1 (configuration not stated) [LG190178] | > 1000

Next, values leading:

IC50 [nM] | SMILES
> 1000 | Cc1cc(C2(c3ccc(OCC(=O)C(C)(C)C)c(C)c3)CCCCC2)ccc1OCC(=O)C(C)(C)C [LG190119]
> 1000 | CCC(CC)(c1ccc(OCC(=O)C(C)(C)C)c(C)c1)c1ccc(OCC(=O)C(C)(C)C)c(C)c1 [LG190155]

Biological target: T2, Vitamin D-binding protein (Rattus norvegicus, UniProt P04276)
T2 sequence (P04276 whole entry): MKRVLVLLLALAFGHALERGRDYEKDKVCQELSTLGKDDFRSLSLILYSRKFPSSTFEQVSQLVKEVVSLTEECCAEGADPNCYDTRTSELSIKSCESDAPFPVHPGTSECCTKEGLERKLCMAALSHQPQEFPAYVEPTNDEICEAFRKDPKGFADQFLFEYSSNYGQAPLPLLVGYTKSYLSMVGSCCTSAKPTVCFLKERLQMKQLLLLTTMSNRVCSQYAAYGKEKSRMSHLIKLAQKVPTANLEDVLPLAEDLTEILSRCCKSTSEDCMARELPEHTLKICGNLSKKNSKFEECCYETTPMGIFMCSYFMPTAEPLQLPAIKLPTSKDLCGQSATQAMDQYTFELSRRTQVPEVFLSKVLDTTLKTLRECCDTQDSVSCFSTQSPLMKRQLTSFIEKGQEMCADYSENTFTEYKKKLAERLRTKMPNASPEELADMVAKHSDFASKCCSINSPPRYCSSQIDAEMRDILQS
Experiment: DBP Binding Assay
Conditions: pH 7.4; 4 °C
Source text: as §1

IC50 [nM] | SMILES
40 | C=C1/C(=C\C=C\C2CCC3(C)C(CCC3C(C)CCCC(C)(C)O)C2)C[C@@H](C)C[C@@H]1C (some centres not stated) [1,25(OH)2D3]

Biological target: T3, Vitamin D3 receptor (Homo sapiens, UniProt P11473)
T3 sequence (P11473 whole entry): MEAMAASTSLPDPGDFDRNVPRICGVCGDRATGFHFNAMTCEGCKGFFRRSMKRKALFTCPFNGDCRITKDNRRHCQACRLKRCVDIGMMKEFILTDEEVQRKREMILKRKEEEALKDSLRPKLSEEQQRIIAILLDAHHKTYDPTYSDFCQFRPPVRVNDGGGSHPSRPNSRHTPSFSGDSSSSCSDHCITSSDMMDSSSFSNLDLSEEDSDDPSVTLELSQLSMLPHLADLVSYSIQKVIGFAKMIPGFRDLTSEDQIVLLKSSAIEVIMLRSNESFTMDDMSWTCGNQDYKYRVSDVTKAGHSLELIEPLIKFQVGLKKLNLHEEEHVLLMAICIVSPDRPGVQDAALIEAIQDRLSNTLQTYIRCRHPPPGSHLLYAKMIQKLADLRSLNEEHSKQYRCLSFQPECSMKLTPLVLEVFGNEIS
Experiment: VDR Ligand-Binding Assay
Conditions: pH 7.5; 4 °C
Source text: VDR in vitro ligand-binding assay using human VDR constructed into a yeast expression plasmid.

SMILES | Ki [nM]
C=C1/C(=C\C=C\C2CCC3(C)C(CCC3C(C)CCCC(C)(C)O)C2)C[C@@H](C)C[C@@H]1C (some centres not stated) [1,25(OH)2D3] | 0.5
CC(C)(C)C(=O)COc1ccc(C(C)(C)c2ccc(OCC(=O)C(C)(C)C)c(Cl)c2)cc1Cl [LG190090] | > 1000
CCC(CC)(c1ccc(OCC(=O)C(C)(C)C)c(C)c1)c1ccc(OCC2CO2)c(C)c1 (configuration not stated) [LG190176] | > 1000

Further lines, results first:

Ki [nM] | SMILES
> 1000 | Cc1cc(C2(c3ccc(OCC(=O)C(C)(C)C)c(C)c3)CCCCC2)ccc1OCC(=O)C(C)(C)C [LG190119]
> 1000 | CCC(CC)(c1ccc(OCC(=O)C(C)(C)C)c(C)c1)c1ccc(OCC(=O)C(C)(C)C)c(C)c1 [LG190155]
